Earlier results, collected in US20260130846A1, “ORAL PRODUCT” (NICOVENTURES TRADING LIMITED, priority 2022, published 2026).

Legend:
[1] = humans
[2] = mammals

- Time for which brain levels continue to increase after consumption [2]: 4 h
SMILES: CCNC(=O)CC[C@H](N)C(=O)O [Theanine, L-γ-glutamylethylamide]
- Absorption; plasma levels after oral consumption [1]: rapidly absorbed, with plasma levels rising in a linear dose-related manner
